Here are results for 55 compounds from patent US8518980B2, “Treatment of Duchenne muscular dystrophy” (Summit Corporation PLC, priority 2006, dated 2013).

Each structure is given as a SMILES string.

In this assay the test system is Utrophin A promoter linked to a luciferase reporter gene (H2K/mdx/Utro A reporter cell line). Nature of the assay: Luciferase reporter assay (murine H2K cells). As to conditions: Mus musculus, H2K mdx. (Reporter assays use an easily measured gene product as a stand-in for the process of interest.)
With `COc1ccc(-c2nc3ccccc3s2)cc1` [Example 582, 2-(4-Methoxyphenyl)benzo[d]thiazole], the activity at 10 µM was more than 401%.

Consider `Cn1c(NC(=N)c2ccccc2)nc2ccccc21` [Example 669, N-(1-methyl-1H-benzo[d]imidazol-2-yl)benzimidamide], for which the activity at 10 µM was 201 to 300%.

On to `Cc1ccc(-c2nc3ccccc3n2C)cc1` [Example 588, 1-Methyl-2-p-tolyl-1H-benzo[d]imidazole], for which the activity at 10 µM fell in the range of 301 to 400%.

Consider `Nc1ccc2nc(-c3cccc(Cl)c3)oc2c1` [Example 598, 2-(3-Chlorophenyl)benzo[d]oxazol-6-amine], for which the activity at 10 µM was 301 to 400%.

`CNC(=O)Nc1ccc2nc(C)oc2c1` [Example 467, 1-methyl-3-(2-methylbenzo[d]oxazol-6-yl)urea]: the activity at 10 µM is less than 200%.

As to `O=C(Nc1ccc(-c2nc3ncccc3o2)cc1)c1ccccc1Cl` [Example 641, 2-chloro-N-(4-(oxazolo[4,5-b]pyridin-2-yl)phenyl)benzamide], the activity at 10 µM lay in the range of 301 to 400%.

In the case of `c1cc(NCc2ccncc2)cc(-c2nc3ccccc3s2)c1` [Example 647, 3-(benzo[d]thiazol-2-yl)-N-(pyridin-4-ylmethyl)aniline], the activity at 10 µM was in the range of 301 to 400%.

With `Clc1cccc(-c2nc3ccccc3[nH]2)c1` [Example 514, 2-(3-chlorophenyl)-1H-benzo[d]imidazole], the activity at 10 µM is less than 200%.

`Cc1ccc2oc(-c3cc(NC(=O)c4cncc(Br)c4)ccc3O)nc2c1` [Example 684, 5-bromo-N-(4-hydroxy-3-(5-methylbenzo[d]oxazol-2-yl)phenyl)nicotinamide]: the activity at 10 µM was 201 to 300%.

In the case of `Cc1cc2nc(-c3cc(N)ccc3Cl)oc2cc1C` [Example 646, 4-chloro-3-(5,6-dimethylbenzo[d]oxazol-2-yl)aniline], the activity at 10 µM lay in the range of 301 to 400%.

Take `CCc1ccc2oc(-c3cccc(NC(C)=O)c3)nc2c1` [Example 642, N-(3-(5-ethylbenzo[d]oxazol-2-yl)phenyl)acetamide]: the activity at 10 µM was 301 to 400%.

For `Nc1ccc2oc(-c3cccc(Cl)c3)nc2c1` [Example 489, 2-(3-chlorophenyl)benzo[d]oxazol-5-amine], the activity at 10 µM was in the range of 201 to 300%.

For `COc1ccc(-c2nc3ccccc3n2C)cc1OC` [Example 521, 2-(3,4-dimethoxyphenyl)-1-methyl-1H-benzo[d]imidazole], the activity at 10 µM was less than 200%.

Consider `Cc1cccc(-c2nc3cc([N+](=O)[O-])ccc3o2)c1` [Example 533, 5-nitro-2-m-tolylbenzo[d]oxazole], for which the activity at 10 µM is 201 to 300%.

`COc1ccc(-c2nc3ccccc3s2)cc1N` [Example 597, 5-(Benzo[d]thiazol-2-yl)-2-methoxyaniline]: the activity at 10 µM was 301 to 400%.

For the compound `O=[N+]([O-])c1ccc(-c2nc3ccccc3o2)cc1` [Example 477, 2-(4-nitrophenyl)benzo[d]oxazole], the activity at 10 µM is less than 200%.

In the case of `c1ccc2sc(-c3ccc4c(c3)OCO4)nc2c1` [Example 608, 2-(Benzo[d][1,3]dioxol-5-yl)benzo[d]thiazole], the activity at 10 µM is more than 401%.

On to `O=C(Nc1ccccc1-c1nc2ccccc2[nH]1)c1ccc(S(=O)(=O)N2CCCC2)cc1` [Example 511, N-(2-(1H-benzo[d]imidazol-2-yl)phenyl)-4-(pyrrolidin-1-ylsulfonyl)benzamide], for which the activity at 10 µM is less than 200%.

`c1ccc(NNc2nc3ccccc3s2)cc1` [Example 552, 2-(2-phenylhydrazinyl)benzo[d]thiazole]: the activity at 10 µM is less than 200%.

For `CN(C)c1ccc(-c2nc3cc(N)ccc3o2)cc1` [Example 491, 2-(4-(dimethylamino)phenyl)benzo[d]oxazol-5-amine], the activity at 10 µM lay in the range of 201 to 300%.

On to `Cc1ccc2nc(NC(=O)c3ccco3)sc2c1` [Example 652, N-(6-methylbenzo[d]thiazol-2-yl)furan-2-carboxamide], for which the activity at 10 µM was 301 to 400%.

`COc1ccc(CSc2nc3ccccc3[nH]2)cc1` [Example 640, 2-(4-methoxybenzylthio)-1H-benzo[d]imidazole]: the activity at 10 µM was 301 to 400%.

In the case of `c1csc(-c2nc3ccccc3[nH]2)c1` [Example 463, 2-(thiophen-2-yl)-1H-benzo[d]imidazole], the activity at 10 µM is less than 200%.

`Cc1ccc2[nH]c(-c3sc4nc(C)ccc4c3N)nc2c1` [Example 632, 6-methyl-2-(5-methyl-1H-benzo[d]imidazol-2-yl)thieno[2,3-b]pyridin-3-amine]: the activity at 10 µM is more than 401%.

As to `O=C(Nc1nc2ccc(F)cc2s1)c1cccs1` [Example 658, N-(6-fluorobenzo[d]thiazol-2-yl)thiophene-2-carboxamide], the activity at 10 µM was 301 to 400%.

On to `c1csc(-c2nc3cc4ccccc4cc3[nH]2)c1` [Example 561, 2-(thiophen-2-yl)-1H-naphtho[2,3-d]imidazole], for which the activity at 10 µM fell in the range of 301 to 400%.

Turning to `Nc1ccc(-c2nc3ccccc3s2)cc1` [Example 601, 4-(Benzo[d]thiazol-2-yl)aniline], the activity at 10 µM is 301 to 400%.

With `Cc1cc2oc(C(=O)NCc3ccncc3)c(C)c2cc1C` [Example 656, 3,5,6-trimethyl-N-(pyridin-4-ylmethyl)benzofuran-2-carboxamide], the activity at 10 µM was 301 to 400%.

For the compound `CCc1ccc(-c2nc3cc(N)ccc3o2)cc1` [Example 481, 2-(4-ethylphenyl)benzo[d]oxazol-5-amine], the activity at 10 µM was 201 to 300%.

Regarding `O=C(NCCc1ccccc1)c1cc2ccccc2o1` [Example 665, N-phenethylbenzofuran-2-carboxamide], the activity at 10 µM lay within 201 to 300%.

For the compound `COc1ccc(-c2nc3ccccc3s2)cc1O` [Example 596, 5-(Benzo[d]thiazol-2-yl)-2-methoxyphenol], the activity at 10 µM is more than 401%.

On to `Cc1ccc(OCc2nc3ccccc3[nH]2)cc1` [Example 531, 2-(p-tolyloxymethyl)-1H-benzo[d]imidazole], for which the activity at 10 µM fell in the range of 201 to 300%.

For `CCOc1ccc(NCc2nc3ccccc3n2C)cc1` [Example 676, 4-ethoxy-N-((1-methyl-1H-benzo[d]imidazol-2-yl)methyl)aniline], the activity at 10 µM lay in the range of 201 to 300%.

For the compound `Nc1cccc(-c2nc3cc(Cl)ccc3o2)c1` [Example 622, 3-(5-chlorobenzo[d]oxazol-2-yl)aniline], the activity at 10 µM was more than 401%.

In the case of `COc1cccc(-c2nc3ccccc3[nH]2)c1` [Example 600, 2-(3-Methoxyphenyl)-1H-benzo[d]imidazole], the activity at 10 µM was 201 to 300%.

Consider `CCNC(=O)Nc1ccc2[nH]c(C(C)(C)C)cc2c1` [Example 576, 1-(2-tert-butyl-1H-indol-5-yl)-3-ethylurea], for which the activity at 10 µM was less than 200%.

With `O=C(Nc1cccc(-c2nc3ccccc3[nH]2)c1)c1ccccc1` [Example 464, N-(3-(1H-benzo[d]imidazol-2-yl)phenyl)benzamide], the activity at 10 µM was less than 200%.

Take `Nc1cccc(-c2nc3ccccc3s2)c1` [Example 602, 3-(Benzo[d]thiazol-2-yl)aniline]: the activity at 10 µM lay in the range of 301 to 400%.

Consider `O=[N+]([O-])c1ccc2oc(-c3ccccc3)nc2c1` [Example 492, 5-nitro-2-phenylbenzo[d]oxazole], for which the activity at 10 µM was in the range of 201 to 300%.

`COc1ccc2oc(-c3cccc(N)c3)nc2c1` [Example 630, 3-(5-methoxybenzo[d]oxazol-2-yl)aniline]: the activity at 10 µM is more than 401%.

Take `O=C(Nc1ccccc1F)c1sc2ccccc2c1Cl` [Example 621, 3-chloro-N-(2-fluorophenyl)benzo[b]thiophene-2-carboxamide]: the activity at 10 µM was more than 401%.

As to `Nc1cc(-c2nc3ccccc3[nH]2)ccc1Cl` [Example 653, 5-(1H-benzo[d]imidazol-2-yl)-2-chloroaniline], the activity at 10 µM was in the range of 301 to 400%.

Turning to `c1ccc(OCc2nc3ccccc3[nH]2)cc1` [Example 471, 2-(phenoxymethyl)-1H-benzo[d]imidazole], the activity at 10 µM lay in the range of 201 to 300%.

Take `Cc1ccc(C(=O)Nc2nc3ccccc3s2)c(Cl)c1` [Example 567, N-(benzo[d]thiazol-2-yl)-2-chloro-4-methylbenzamide]: the activity at 10 µM was less than 200%.

Regarding `COc1ccc(CSc2nc3ccccc3n2C)cc1F` [Example 645, 2-(3-fluoro-4-methoxybenzylthio)-1-methyl-1H-benzo[d]imidazole], the activity at 10 µM fell in the range of 301 to 400%.

Take `CCc1ccc2oc(-c3ccc(N)cc3)nc2c1` [Example 553, 4-(5-ethylbenzo[d]oxazol-2-yl)aniline]: the activity at 10 µM was more than 401%.

On to `CN(C)c1ccc(-c2nc3ccccc3o2)cc1` [Example 486, 4-(benzo[d]oxazol-2-yl)-N,N-dimethylaniline], for which the activity at 10 µM is less than 200%.

`Cc1ccc2nc(-c3ccc(NC(=O)c4cccnc4)cc3)sc2c1` [Example 638, N-(4-(6-methylbenzo[d]thiazol-2-yl)phenyl)nicotinamide]: the activity at 10 µM lay in the range of 301 to 400%.

Consider `COc1ccc(C(=O)Nc2ccc(-c3nc4ccccc4[nH]3)cc2)cc1OC` [Example 494, N-(4-(1H-benzo[d]imidazol-2-yl)phenyl)-3,4-dimethoxybenzamide], for which the activity at 10 µM is less than 200%.

For the compound `O=C(Cc1cccs1)Nc1ccc(-c2nc3ccccc3[nH]2)cc1` [Example 493, N-(4-(1H-benzo[d]imidazol-2-yl)phenyl)-2-(thiophen-2-yl)acetamide], the activity at 10 µM was less than 200%.

Take `CCC(C)C(=O)Nc1ccc(-c2nc3ccccc3[nH]2)cc1` (stereo not shown) [Example 631, N-(4-(1H-benzo[d]imidazol-2-yl)phenyl)-2-methylbutanamide]: the activity at 10 µM is more than 401%.

`COc1ccc(-c2nc3ccccc3[nH]2)cc1` [Example 470, 2-(4-methoxyphenyl)-1H-benzo[d]imidazole]: the activity at 10 µM was in the range of 201 to 300%.

Consider `CCn1c(C)nc2cc(C(=O)Nc3ccccc3)ccc21` [Example 615, 1-ethyl-2-methyl-N-phenyl-1H-benzo[d]imidazole-5-carboxamide], for which the activity at 10 µM was more than 401%.

Turning to `CCS(=O)(=O)c1ccc2ocnc2c1` [Example 573, 5-(ethylsulfonyl)benzo[d]oxazole], the activity at 10 µM was less than 200%.

Turning to `CC(=O)Nc1ccc(-c2nc3cc(Cl)c(NC(C)=O)cc3[nH]2)cc1` [Example 556, N-(4-(6-acetamido-5-chloro-1H-benzo[d]imidazol-2-yl)phenyl)acetamide], the activity at 10 µM is less than 200%.
